Measured values: patent publication US8507523B2, “Therapeutic tetrahydroisoquinoline-based compositions for cancer therapy” (priority 2006, dated 2013)
Where two headings read alike, the source gives them in different places.

Legend:
[1] = test system: C6 glioma; assay: C6 glioma transplanted into rat brain, tumor size determination; type: in vivo, Sprague-Dawley rats
Protocol: For studies in which C6 glioma are transplanted into the brain, a C6 cell line produced in the inventors' laboratory that caries the β-galactosidase marker was used. The cell line was transfected with the pCMVβ expression vector (Clontech, Palo Alto, Calif.) and stable transfectants were selected using G418 (GibcoBRL). The glioma cells were plated at a density of 5×10^3 cells/cm^2 into T-75 culture flasks. The cells were allowed to grow to confluence in BME with 10% fetal calf serum. On the day before transplantation, the cultures were rinsed with Hank's Balanced Salt Solution placed in BME with 10% rat serum (Equitech-Bio Inc., Kerrville, Tex.).
A total of 18 male Sprague-Dawley rats (250-350 g) were deeply anesthetized with (13 mg/kg, Rompom and 87 mg/kg, Ketalar) for the surgery. The rats were monitored during the surgery to insure that they remained deeply anesthetized and unresponsive to pain. […]
The tumor was allowed to grow for three days prior to treatment. […] During the treatment period the animal were monitored daily. […]
The size of tumors in each animal was measured. […] The digital images were analyzed to define the volume of the tumor using the program NIH image. […] The codes were released and the data compiled and analyzed using a Student t test. […]

[2] = test system: C6 glioma; assay: Dose response (percent survival) in C6 glioma cell cultures; type: cell-based, rat
Description: (§1) 6,7-Dimethoxy-1-[4-(4-methoxypyridin-3-yl)benzyl]-1,2,3,4-tetrahydroisoquinolinehydrochloride (EDL-291) was synthesized as described herein in the laboratory of Dr. Duane D. Miller at The University of Tennessee Health Science Center. Briefly, the primary cultures of astrocytes and cultures of C6 glioma cell lines were handled identically with respect to treatment concentrations and manipulations of cells for the screening assays. The cells were trypsinized and transferred to 96-well plates at a cell density of 10^3 cells/mm^2 in the wells. The cells were grown overnight in 100 μL of 10% FCS BME in a 37° C. incubator containing a humid, 5% CO2 atmosphere.
(§2) EDL291 was dissolved completely to make a […] stock solution and diluted to produce a series of concentrations. A 20 μL aliquot of these initial solutions was added to 180 μl of 2% FCS BME to produce the test concentration. The vehicle solution was tested as a control. […] Immediately before treatment, the 10% FCS BME was removed from the cells and replaced with the 180 μl of the treatment medium. The cultured cells (normal primary cultures of rat brain astrocytes or C6 glioma purchased from ATCC) were incubated with test compound for 4 days. The cells were fixed with 4% paraformaldehyde, stained with 0.1% Cresylecth violet stain, and quantitated. The screening data was collected as four wells for each dose per compound (screening) or concentration (dose response curve). Also, the average growth of 8 wells with no treatment was used as a negative control for each plate (100% growth). The cells for dose response curves were grown in the same media and were handled in a similar manner as in the screening assays.
(§3) The cytotoxic character of each compound was reported as the percent survival, calculated as the average A560 for treated cells divided by A560 of untreated (100% control) cells, and expressed as a percentage. Values less than 100% indicate a cytostatic or cytotoxic effect. Dose response curves and EC50 values were attained via plots of percent survival vs. concentration.

[3] = test system: normal primary cultures of rat brain astrocytes; assay: Dose response (percent survival) in primary cultures of astrocytes; type: cell-based; conditions: 4 days of treatment
Description: as §1, §2, §3

[4] = Acute toxicity observation in treated glioma-bearing rats; type: in vivo, Sprague-Dawley rats; conditions: 40 mg/kg
Protocol: The tumor was allowed to grow for three days prior to treatment. EDL-291 (40 mg/kg) was delivered by IP delivery twice a day for the next seven days. Animals were placed into one of two treatment groups: 9 rats received carrier solution only (Hanks Balanced Salt Solution, HBSS plus 10% DMSO) and 9 rats received EDL-291. During the treatment period the animal were monitored daily. After a treating the animals for 7 days, the rats were deeply anesthetized with 26 mg/kg Rompium and 174 mg/kg Ketalar and perfused through the heart with saline followed by 4% paraformaldehyde in phosphate buffer (pH 7.4). Brains were removed from the skull, post-fixed for 24 hours and then placed in a 30% sucrose solution. The brains were sectioned at […] with a freezing microtome. One 1-in-5 series of sections was mounted on glass slides and stained by the Nissl method.
Approximately three days after tumor cell implantation, animals began receiving intraperitoneal administration of EDL-291 (40 mg/kg) twice daily for the next seven days. Animals were placed into one of two treatment groups: 9 rats received vehicle only (10% DMSO in Hanks Balanced Salt Solution, HBSS) and 9 rats received EDL-291. Animals were monitored daily during the treatment period. […]

COc1cc2c(cc1OC)C(Cc1ccc(-c3cnccc3OC)cc1)NCC2.Cl (stereo not shown) [EDL-291, 6,7-Dimethoxy-1-[4-(4-methoxypyridin-3-yl)benzyl]-1,2,3,4-tetrahydroisoquinolinehydrochloride]
tumors smaller on average than in control rats ([1]; 40 mg/Kg BID IP for 7 days, n=9, p=0.02 (student t test)): 32%
tumor size compared to vehicle control animals (in words) ([1]; 40 mg/kg IP twice daily for 7 days): statistically significant reduction in tumor size
fold difference in effect concentration, C6 glioma relative to normal brain astrocytes ([2]; EC50 astrocytes vs EC50 C6 glioma): 36 fold
EC50 ([2]; Rattus norvegicus, C6 glioma, 96 h, C6 glioma cells, 4 days of treatment, percent survival): 0.6 µM
EC50 ([3]; read-out: EC50 μM Astrocyte): 26 µM
EC50 ([3]; Rattus norvegicus, Astrocyte, 96 h): 22.8 µM
acute toxicity [4]: no evidence of acute toxicity
